Common to all, as to assay: NCI-60 cell line screen, 48 h
For assay [1], the system named is NCI-H23.
Assay [2] deals with SNB-75.
The test system of assay [3] is CAKI-1.
For assay [4], the system named is IGROV-1.
Assay [5] has as its system HCC 2998.
Assay [6] concerns UO-31.
Assay [7] has as its system SK-MEL-2.
For assay [8], the system named is CCRF-CEM.
Assay [9] deals with SK-MEL-28.
Assay [10] has as its system LOX IMVI.
Assay [11] relates to SN12C.
The test system of assay [12] is RXF 393.
In assay [13] the test system is OVCAR-8.
Assay [14] relates to ACHN.
The subject of assay [15] is OVCAR-5.
The test system of assay [16] is Malme-3M.
Assay [17] relates to HCT-116.

The structures appear in SMILES notation.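 96-well plates; 48 h exposure; 5 concentrations. Endpoints by linear interpolation between flanking doses. Not reached: highest tested concentration assigned. At the GI50, growth is halved.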 Active and inactive are the calls of the source. Rule as the data show it: active = GI50 up to about 1.1 µM and inactive = higher. Some results are limits rather than exact numbers.

`COc1cccc2c1C(=O)c1c(O)c3c(c(O)c1C2=O)C[C@@](O)(C(=O)CO)CC3OC1CC(N(C)CCOCC(OC(C)=O)OC(C)=O)C(O)C(C)O1` (stereo partly specified): the GI50 in [1], in [2], in [3], in [4], in [5] and in assay [6] was > 0.01 µM (active) each time. For the same compound, the GI50 in [7], in assay [8], in [9], in assay [10], in assay [11] and in [12] was > 0.01 µM (active) throughout. Further, the GI50 in assay [13], in assay [14], in assay [15] and in [16] was > 0.01 µM (active) throughout.
Turning to `COc1cc(OC(=O)c2c(O)cc(O)c(O)c2C)cc(C)c1C(=O)Oc1cc(C)c(C(=O)O)c(O)c1`, the GI50 in assay [1], in [2], in assay [3], in [4], in assay [5] and in assay [6] was > 100 µM (inactive) in each case. The GI50 in [7], in assay [8], in assay [9], in [10], in assay [11] and in [12] was > 100 µM (inactive) throughout. The GI50 in assay [13], in assay [14], in assay [17], in [15] and in [16] was > 100 µM (inactive) each time.
Take `CC(O)(c1ccc(OCCC[N+](C)(C)C)cc1)C(C)(O)c1ccc(OCCC[N+](C)(C)C)cc1` (stereo unspecified): the GI50 in [1], in assay [2], in [3], in [4], in assay [5] and in assay [6] was > 100 µM (inactive) in each case. In addition, the GI50 in [7], in assay [8], in assay [9], in [10], in [11] and in assay [12] was > 100 µM (inactive) each time. The GI50 in assay [13], in assay [14], in assay [17], in [15] and in assay [16] was > 100 µM (inactive) in each case.
For `CC(C)(C)c1cc(CCC(=O)Nc2ccc(Cl)cc2Cl)nc(N)n1`, the GI50 in [1], in [3], in [4], in assay [5], in assay [6] and in assay [7] was > 100 µM (inactive) in each case. In addition, the GI50 in assay [8], in assay [9], in assay [10], in assay [11], in assay [12] and in [13] was > 100 µM (inactive) in each case. Also, the GI50 in [14], in [17], in assay [15] and in [16] was > 100 µM (inactive) throughout.
Consider `COc1cc(C2Oc3cc(-c4oc5cc(O)cc(O)c5c(=O)c4O)ccc3OC2CO)ccc1O` (stereo unspecified) [DEHYDROSILYLBIN], for which the GI50 is 4.3 µM (inactive) in assay [1]; 5 µM (inactive) in [2]; 14 µM (inactive) in assay [3]; 10.9 µM (inactive) in [4]; 24.8 µM (inactive) in assay [5]; 2.64 µM (inactive) in assay [6]. Further, the GI50 is 7.38 µM (inactive) in assay [7]; 5.77 µM (inactive) in assay [8]; 10.1 µM (inactive) in assay [9]; 10.8 µM (inactive) in assay [11]; 2.31 µM (inactive) in assay [12]; 30.1 µM (inactive) in assay [13]. Further, the GI50 in [14] was 7.64 µM (inactive); in assay [17], 4.71 µM (inactive); in assay [16] it was 22.8 µM (inactive).
`CCOC(=O)c1c2cccccc2n2c(=O)cc(C)nc12`: the GI50 in assay [1], in assay [3], in [4], in assay [5], in assay [6] and in assay [7] was > 100 µM (inactive) in each case. Besides, the GI50 in assay [8], in assay [9], in assay [10], in assay [11], in assay [12] and in [13] was > 100 µM (inactive) in each case. For the same compound, the GI50 in [14] and in assay [15] was > 100 µM (inactive) throughout.
Take `Nc1nc(N)c(N=O)c(Nc2ccc(I)cc2)n1`: the GI50 in assay [1] was 18.2 µM (inactive); in assay [4] it was 3.94 µM (inactive); in assay [5], 27.5 µM (inactive); in assay [6], 18 µM (inactive); in assay [7], 15.3 µM (inactive); in assay [8], 13.8 µM (inactive). The GI50 in assay [9] was 14 µM (inactive); in assay [10], 9.12 µM (inactive); in assay [11], 10.6 µM (inactive); in assay [12], 17.9 µM (inactive); in assay [13], 29.4 µM (inactive); in [14], 24 µM (inactive). Moreover, the GI50 in assay [17] is 14.3 µM (inactive); in assay [15] it was 19.2 µM (inactive); in assay [16], 19.2 µM (inactive).
On to `CC1Nc2ccccc2NC1C=C(C#N)C#N` (stereo unspecified), for which the GI50 in assay [1] was 17.2 µM (inactive); in [2], 14.6 µM (inactive); in assay [3] it was 14.1 µM (inactive); in assay [4] it was 18.1 µM (inactive); in assay [5] it was 18.4 µM (inactive); in [6] it was 15 µM (inactive). For the same compound, the GI50 in assay [7] was 21.3 µM (inactive); in assay [8] it was 2.72 µM (inactive); in assay [9], 16.6 µM (inactive); in assay [10], 11.3 µM (inactive); in [11], 15.6 µM (inactive); in assay [12], 16.6 µM (inactive). For the same compound, the GI50 in assay [13] was 7.76 µM (inactive); in assay [14], 18.3 µM (inactive); in assay [17] it was 13.5 µM (inactive); in [15] it was 18.9 µM (inactive); in assay [16] it was 16.7 µM (inactive).
Regarding `Cn1c(=O)c(C2c3ccccc3Oc3c2c(=O)n(C)c2ccccc32)c(O)c2ccccc21` (stereo unspecified), the GI50 is 40.6 µM (inactive) in assay [1]; 40.9 µM (inactive) in assay [2]; 46.9 µM (inactive) in assay [3]; 59.2 µM (inactive) in [4]; 44.3 µM (inactive) in assay [5]; 73.5 µM (inactive) in assay [6]. Besides, the GI50 was 61.7 µM (inactive) in assay [7]; 86.9 µM (inactive) in assay [9]; 37.9 µM (inactive) in assay [10]; 46.7 µM (inactive) in [11]; 63 µM (inactive) in [12]; > 100 µM (inactive) in [13]. Moreover, the GI50 was 39.8 µM (inactive) in assay [14], 43.2 µM (inactive) in [17], > 100 µM (inactive) in assay [15] and 73.5 µM (inactive) in assay [16].
For the compound `CC1CCC23COC(=O)C2C(O)CCC3C1(C)CC(O)c1ccoc1` (stereo unspecified), the GI50 is > 100 µM (inactive) in assay [1]; 41.3 µM (inactive) in assay [2]; > 100 µM (inactive) in assay [4]; > 100 µM (inactive) in assay [5]; > 100 µM (inactive) in assay [6]; > 100 µM (inactive) in [7]. Moreover, the GI50 in assay [8], in assay [9], in assay [10], in assay [11], in [12] and in [13] was > 100 µM (inactive) each time. In addition, the GI50 in [14], in assay [17], in [15] and in assay [16] was > 100 µM (inactive) in each case.
Turning to `O=C(CC(=O)N1N=C(n2ccc3ccccc32)CC1c1ccccc1)Nc1ccc(Cl)cc1` (stereo unspecified), the GI50 was > 100 µM (inactive) in [1]; 59.7 µM (inactive) in [2]; > 100 µM (inactive) in [4]; > 100 µM (inactive) in assay [5]; > 100 µM (inactive) in [6]; > 100 µM (inactive) in [7]. Also, the GI50 in assay [8], in assay [9], in assay [10], in [11], in assay [12] and in assay [13] was > 100 µM (inactive) throughout. Further, the GI50 in assay [14], in [17], in assay [15] and in assay [16] was > 100 µM (inactive) each time.
Take `COC(=O)C1=C(CO)C2C=CC1C2` (stereo unspecified): the GI50 in [1], in assay [2], in assay [3], in assay [4], in assay [5] and in assay [6] was > 100 µM (inactive) throughout. In addition, the GI50 in assay [7], in assay [8], in assay [10], in assay [11], in [12] and in assay [13] was > 100 µM (inactive) throughout. The GI50 in assay [14], in [17], in assay [15] and in [16] was > 100 µM (inactive) throughout.

Values taken from ChEMBL document CHEMBL1201862, “PubChem BioAssay data set” (2004).
